Results as given in the NIST ThermoML archive (doi:10.1016/j.tca.2013.10.035).
Numbers after ± are expanded uncertainties.

Key:
[1] = DTA
[2] = Molar enthalpy of transition or fusion; settings: DSC

SMILES	Normal melting temperature ([1]; Crystal) [°C]	Molar enthalpy of transition or fusion ([2]; Crystal) [kcal/mol]	Glass transition temperature [1] [°C]	Normal melting temperature ([1]; Crystal 1) [°C]	Molar enthalpy of transition or fusion ([2]; Crystal 1) [kcal/mol]	Normal melting temperature ([1]; Metastable crystal) [°C]	Molar enthalpy of transition or fusion ([2]; Metastable crystal) [kcal/mol]
CC(C)NCC(O)COc1ccc(CC(N)=O)cc1 (stereo not given) [2-(4-(2-hydroxy-3-(isopropylamino)propoxy)phenyl)acetamide]	152.8 ± 0.5	8.99 ± 0.239					
COc1ccc2cc([C@H](C)C(=O)O)ccc2c1 [(S)-(+)-naproxen]	153.6 ± 0.5	6.93 ± 0.191					
CC(=O)Nc1ccc(O)cc1 [N-acetyl-p-aminophenol]			21.2 ± 0.5	169.2 ± 0.5	6.21 ± 0.191	156.7 ± 0.5	5.95 ± 0.167

Continued, values first:

Normal melting temperature ([1]; Crystal) [°C]	Molar enthalpy of transition or fusion ([2]; Crystal) [kcal/mol]	Glass transition temperature [1] [°C]	Normal melting temperature ([1]; Crystal 1) [°C]	Molar enthalpy of transition or fusion ([2]; Crystal 1) [kcal/mol]	Normal melting temperature ([1]; Metastable crystal) [°C]	Molar enthalpy of transition or fusion ([2]; Metastable crystal) [kcal/mol]	SMILES
95.4 ± 0.5	9.23 ± 0.263	3.2 ± 0.5					COc1ccccc1OCC(O)COC(N)=O (stereo not given) [2-hydroxy-3-(2-methoxyphenoxy)propyl carbamate]
		-34.5 ± 0.5	70.0 ± 0.5	7.12 ± 0.215			Cc1ccccc1OCC(O)CO (stereo not given) [3-(2-methylphenoxy)-1,2-propanediol]
